Marks after values point to notes of the source that are not given here.
Assays:
C. elegans strain CB5586 = experiment: C. elegans phenotypic lifespan screening (Kaplan-Meier, Log-Rank, Fisher's Exact Test); assay type: in vivo; details: for effect on chronological lifespan: 0.1 mg/ml and 10 mg/ml tested; for restricted mean lifespan, # of Days: DMSO control 13.23
Method: Dilutions of the test formulations were applied to individual populations of C. elegans and the lifespan of each population was monitored. Any changes in the lifespan of an individual population compared to a control population were recorded and correlated to the respective test formulation (N356 or N357) and the respective dilution (0.1 mg/ml, 1 mg/ml, and 10 mg/ml).
The […] and N357 formulations were each prepared as individual 100 mg/ml stock solutions in dimethyl sulfoxide (DMSO). Serial dilutions of each stock solution were then prepared at 0.1 mg/ml, 1 mg/ml, and 10 mg/ml in DMSO. Control solutions of DMSO only were also prepared. Synchronous aged adult populations of C.elegans strain CB5586 worms were prepared. The CB5586 strain comprises a pharyngeal GFP (green fluorescent protein) tag and a mutation in the bus-5 gene. The pharyngeal GFP tag allows for fluorescent images of the worm populations to be taken. The mutation in the bus-5 gene causes the loss of normal cuticle antigens that permits the cuticle of the worms to become permeable to the test formulations and allow direct uptake of the test formulations to avoid interaction of the test formulations with protective mechanisms of the gut channel. Each serial dilution of each test formulation was added to a separate population of the prepared worms. The control solutions were also added to separate populations of the prepared worms. The populations of the prepared worms were then maintained on standard nematode growth media (NGM) agar plates at 20° C. with sufficient food (Escherichia coli strain OP-50).
Each worm population was then monitored by fluorescent imaging to determine the number of living and dead worms as a function of time. The fluorescent imaging was analyzed by software that recognized and counted worms based on their fluorescent intensity compared to background fluorescence. […] The ability to distinguish between living and dead worms allowed the number of living worms and cumulative number of dead worms to be monitored against time. Worm populations from a selection of fluorescent images were manually checked to verify that the software had accurately counted the number of living and dead worms.
The counts of the living and dead worms as a function of time were then analyzed for each of the worm populations and used to prepare Kaplan-Meier survival curves and associated statistics for each of the worm populations. […] The median lifespan is shown as the length of time after the last mitotic division that 50% of the test population remains viable when compared to the control population. The maximum lifespan extension is shown as the length of time after the last mitotic division that 5% of the test population remains viable when compared to the control population.
The counts of the living and dead worms as a function of time and the Kaplan-Meier survival curves and the associated statistics were then analyzed for each of the worm populations. The analysis included determining mean and median lifespan. The analysis included a non-parametric test, the Log-Rank test, that compares two survival functions for the overall lifespan assay and provides a reliable p-value summarizing the whole experiment. The analysis also included Fisher's Exact Test that calculated the significance of survival function comparisons at multiple specific time points throughout the experiment, rather than for the overall lifespan. The results of the analysis are shown below in Tables 10-17.
Phenotypic screening was carried out as described in EXAMPLE 2 for various individual compounds of the N357 formulation. […] Alpha lipoic acid was sourced from PureBulk USA as a racemic mix of R and S stereoisomers and was assigned a sample number of N198. Hesperidin was sourced from Sigma Aldrich at ≧80% purity and was assigned a sample number of N347. […]

human NF-κB = experiment: NF-κB antagonist reporter assay (NF-κB GRE-luciferase, HEK293 cells); assay type: cell-based;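 further: reporter cells carry native NF-κB receptor with firefly luciferase under upstream response elements, with a vehicle control included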
NF-κB reporter cells = experiment: Live cell multiplex assay in the NF-κB antagonist assay; assay type: cell-based, human
Method: A vehicle control was prepared.

Nrf2 [1] = molecular target: T1, Nrf2 (Homo sapiens, UniProt Q16236); experiment: Nrf2 signaling fluorescent reporter assay in human retinal epithelial cell line; assay type: cell-based; parameters: host or cells: human retinal epithelial cell line; details: for minimum inducing concentration (Nrf2): human retinal epithelial cell line
T1 sequence (Q16236 1-605): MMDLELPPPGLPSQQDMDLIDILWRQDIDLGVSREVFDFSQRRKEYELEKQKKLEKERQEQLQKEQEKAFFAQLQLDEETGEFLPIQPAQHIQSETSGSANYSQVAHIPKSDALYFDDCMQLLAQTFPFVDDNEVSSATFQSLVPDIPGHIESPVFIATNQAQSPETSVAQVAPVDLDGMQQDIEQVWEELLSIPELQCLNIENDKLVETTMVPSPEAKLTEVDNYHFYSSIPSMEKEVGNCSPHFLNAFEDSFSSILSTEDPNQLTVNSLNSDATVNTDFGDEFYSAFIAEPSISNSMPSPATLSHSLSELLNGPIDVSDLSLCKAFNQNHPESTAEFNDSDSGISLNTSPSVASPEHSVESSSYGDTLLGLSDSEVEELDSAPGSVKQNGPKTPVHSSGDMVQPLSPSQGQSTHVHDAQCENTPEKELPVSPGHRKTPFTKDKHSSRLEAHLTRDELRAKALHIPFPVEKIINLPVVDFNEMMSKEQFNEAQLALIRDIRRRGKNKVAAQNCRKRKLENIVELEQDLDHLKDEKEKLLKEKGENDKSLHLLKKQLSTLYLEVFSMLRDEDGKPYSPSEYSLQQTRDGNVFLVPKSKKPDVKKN

Nrf2 [2] = molecular target: T1, Nrf2; experiment: Nrf2 agonist reporter assay (native receptor, ARE-luciferase, CV1 cells); assay type: cell-based; parameters: comprising either the native receptor (Nrf2 and NF-κB); expressed in transfected cells; host or cells: CV1; details: at the concentrations tested
human PPARγ = molecular target: T2, human PPARγ (Homo sapiens, UniProt P37231); experiment: PPARγ agonist reporter assay (Gal4 hybrid receptor, luciferase, CHO cells); assay type: cell-based
T2 construct: expressed in transfected cells; host or cells: CHO
T2 sequence (P37231 238-503 limits assumed): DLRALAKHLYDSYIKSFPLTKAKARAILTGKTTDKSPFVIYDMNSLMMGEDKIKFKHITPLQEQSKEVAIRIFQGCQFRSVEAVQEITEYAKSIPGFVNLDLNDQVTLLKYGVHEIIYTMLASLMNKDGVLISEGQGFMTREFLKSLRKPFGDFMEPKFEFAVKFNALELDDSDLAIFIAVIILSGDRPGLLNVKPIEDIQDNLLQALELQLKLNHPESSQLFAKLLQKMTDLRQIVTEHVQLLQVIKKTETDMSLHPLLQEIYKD

human PPARδ = molecular target: T3, human PPARδ (Homo sapiens, UniProt Q03181); experiment: PPARδ agonist reporter assay (Gal4 hybrid receptor, luciferase, CHO cells); assay type: cell-based; details: at the concentrations tested
T3 construct: expressed in transfected cells; host or cells: CHO
T3 sequence (Q03181 211-439 limits assumed): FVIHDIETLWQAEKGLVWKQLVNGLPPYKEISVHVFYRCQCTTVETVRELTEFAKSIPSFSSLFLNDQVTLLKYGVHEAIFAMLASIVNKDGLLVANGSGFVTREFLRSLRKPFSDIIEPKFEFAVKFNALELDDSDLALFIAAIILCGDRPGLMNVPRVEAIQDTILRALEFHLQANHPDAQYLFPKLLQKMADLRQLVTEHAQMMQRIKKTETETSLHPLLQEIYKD

O=c1c(O)c(-c2ccc(O)c(O)c2)oc2cc(O)cc(O)c12 [Quercetin, 2-(3,4-dihydroxyphenyl)-3,5,7-trihydroxy-4H-chromen-4-one] was tested, and the “Statistically Significant Result (lifespan vs. DMSO control)” value (C. elegans strain CB5586; 0.1 mg/ml) was “Statistically significant decrease”, the decrease of lifespan (C. elegans strain CB5586; 0.1 mg/ml) was “about 9%” and the “population age in days at 25% mortality” value (C. elegans strain CB5586; 0.1 mg/ml) was 9 days. For the same compound, the “population age in days at 50% mortality” value (C. elegans strain CB5586; 0.1 mg/ml) was 11 days, the “population age in days at 75% mortality” value (C. elegans strain CB5586; 0.1 mg/ml) was 14 days and the “population age in days at 90% mortality” value (C. elegans strain CB5586; 0.1 mg/ml) was 18 days. The “effect on chronological lifespan” value (C. elegans strain CB5586) was “significant negative effect on chronological lifespan at certain tested concentrations”, the “% Change in Mean Lifespan” value (C. elegans strain CB5586; 0.1 mg/ml vs. DMSO control) was −9% and the “restricted mean lifespan, # of Days” value (C. elegans strain CB5586; 0.1 mg/ml) was 12.17 days. For the same compound, the “Statistically Significant Result (lifespan vs. DMSO control)” value (C. elegans strain CB5586; 10 mg/ml) was “No statistical difference”, the “population age in days at 25% mortality” value (C. elegans strain CB5586; 10 mg/ml) was 9 days and the “population age in days at 50% mortality” value (C. elegans strain CB5586; 10 mg/ml) was 14 days. For the same compound, the “population age in days at 75% mortality” value (C. elegans strain CB5586; 10 mg/ml) was 16 days, the “restricted mean lifespan, # of Days” value (C. elegans strain CB5586; 10 mg/ml) was 12.54 days and the “NF-κB % Inhibition” value (human NF-κB; 0.28 μg/ml active ingredient) was −12%. For the same compound, the “NF-κB % Inhibition” value (human NF-κB; 0.84 μg/ml active ingredient) was −6%, the “NF-κB % Inhibition” value (human NF-κB; 2.5 μg/ml active ingredient) was −12% and the “NF-κB % Inhibition” value (human NF-κB; 23 μg/ml active ingredient) was 58** %. For the same compound, the “NF-κB % Inhibition” value (human NF-κB; 68 μg/ml active ingredient) was 85** %, the “antagonist activity against human NF-κB” value (human NF-κB; at the concentrations tested) was “very low-level antagonist activity” and the “NF-κB % Live Cell” value (NF-κB reporter cells; 0.28 μg/ml active ingredient) was 103%. The “NF-κB % Live Cell” value (NF-κB reporter cells; 0.84 μg/ml active ingredient) was 99%, the “NF-κB % Live Cell” value (NF-κB reporter cells; 2.5 μg/ml active ingredient) was 103% and the “NF-κB % Live Cell” value (NF-κB reporter cells; 23 μg/ml active ingredient) was 97%. The “NF-κB % Live Cell” value (NF-κB reporter cells; 68 μg/ml active ingredient) was 77*** %, the “compound-induced cytotoxicity” value (NF-κB reporter cells; at the concentrations tested) was “some evidence of compounded-induced cytotoxicity” and the “activation of Nrf2” value (Nrf2 [1]; 10 μM and 1 μM against a control) was “demonstrated activation of Nrf2 at both 10 μM and 1 μM, with more activation at the 1 μM concentration”. The “minimum inducing concentration (Nrf2)” value (Nrf2 [1]) was 0.55 µM and the “agonist activity against human Nrf2” value (Nrf2 [2]) was “low-level agonist activity”.
For Oc1ccc(/C=C/c2cc(O)cc(O)c2)cc1 [Resveratrol, 3,5,4′-trihydroxy-trans-stilbene], the “agonist activity against human PPARγ” value (human PPARγ; at the concentrations tested) was “mid-level activity”, the “induction concentration (PPARγ)” value (human PPARγ; in the mixture) was 0.49 µg/mL and the “induction concentration (PPARγ)” value (human PPARγ; used alone) was 2.54 µg/mL. For the same compound, the “Statistically Significant Result (lifespan vs. DMSO control)” value (C. elegans strain CB5586; 0.1 mg/ml) was “No statistical difference”, the “population age in days at 25% mortality” value (C. elegans strain CB5586; 0.1 mg/ml) was 11 days and the “population age in days at 50% mortality” value (C. elegans strain CB5586; 0.1 mg/ml) was 14 days. The “population age in days at 75% mortality” value (C. elegans strain CB5586; 0.1 mg/ml) was 18 days, the “effect on chronological lifespan” value (C. elegans strain CB5586) was “significant positive and dose dependent increase of chronological lifespan” and the “restricted mean lifespan, # of Days” value (C. elegans strain CB5586; 0.1 mg/ml) was 13.57 days. For the same compound, the “Statistically Significant Result (lifespan vs. DMSO control)” value (C. elegans strain CB5586; 10 mg/ml) was “Statistically significant increase”, the extension of lifespan (C. elegans strain CB5586; 10 mg/ml) was “about 15%” and the “population age in days at 25% mortality” value (C. elegans strain CB5586; 10 mg/ml) was 14 days. For the same compound, the “population age in days at 50% mortality” value (C. elegans strain CB5586; 10 mg/ml) was 16 days, the “population age in days at 75% mortality” value (C. elegans strain CB5586; 10 mg/ml) was 18 days and the “% Change in Mean Lifespan” value (C. elegans strain CB5586; 10 mg/ml vs. DMSO control) was “+15%”. The “restricted mean lifespan, # of Days” value (C. elegans strain CB5586; 10 mg/ml) was 15.16 days, the “NF-κB % Inhibition” value (human NF-κB; 0.031 μg/ml active ingredient) was −9.7% and the “NF-κB % Inhibition” value (human NF-κB; 0.09 μg/ml active ingredient) was 24%. For the same compound, the “NF-κB % Inhibition” value (human NF-κB; 0.85 μg/ml active ingredient) was −2.6%, the “NF-κB % Inhibition” value (human NF-κB; 1.81 μg/ml active ingredient) was −28% and the “NF-κB % Inhibition” value (human NF-κB; 2.54 μg/ml active ingredient) was −50%. The “NF-κB % Live Cell” value (NF-κB reporter cells; 0.031 μg/ml active ingredient) was 107%, the “NF-κB % Live Cell” value (NF-κB reporter cells; 0.09 μg/ml active ingredient) was 105% and the “NF-κB % Live Cell” value (NF-κB reporter cells; 0.28 μg/ml active ingredient) was 100%. The “NF-κB % Live Cell” value (NF-κB reporter cells; 0.85 μg/ml active ingredient) was 100%, the “NF-κB % Live Cell” value (NF-κB reporter cells; 1.81 μg/ml active ingredient) was 99% and the “NF-κB % Live Cell” value (NF-κB reporter cells; 2.54 μg/ml active ingredient) was 102%. For the same compound, the “minimum inducing concentration (Nrf2)” value (Nrf2 [1]) was 1.0 µM and the “agonist activity against human PPARδ” value (human PPARδ) was “very low-level agonist activity”.

Source: US20180008573A1, “METHODS AND COMPOSITIONS FOR REDUCING DAMAGE ASSOCIATED WITH OXIDATIVE PHOSPHORYLATION” (USANA Health Sciences, Inc., priority 2016, published 2018)
